# Patent publication US11167040B2, “Conjugates comprising peptide groups and methods related thereto” (priority 2015, dated 2021)
# Square brackets hold non-standard residues; d marks the D form. Peptide text beside a SMILES is read from it. Dolaproine = CO[C@@H]([C@@H]1CCCN1)[C@@H](C)C(=O)O; Dil = CC[C@H](C)[C@H](NC)[C@@H](CC(=O)O)OC; NMeV = CN[C@H](C(=O)O)C(C)C
# Assays:
# [1] = tested on: MCF-7 (HER2 negative to normal); assay: Cytotoxicity of anti-HER2 ADCs, SRB assay; format: cell-based, human; conditions: Table 12, hybrid ADCs
# Procedure: (§1) Commercially available human breast cancer cell lines MCF-7 (HER2 negative to normal), OE-19 (HER2 positive), NCI-N87 (HER2 positive), SK-OV-3 (HER2 positive), JIMT-1 (HER2 positive), and SK-BR-3 (HER2 positive) were used. The cell lines were cultured according to recommended specifications provided with the commercially available cell lines.
# (§2) Anti-proliferation activities of the antibodies, drugs, and conjugates with regard to the cancer cell lines were measured. The cells were plated in 96-well, tissue culture plates at 1×10^4 cells per well. After 24 hour incubation, the antibodies, drugs, and conjugates were added in various concentrations. The number of viable cells after 72 hours were counted using SRB assay. Absorbance was measured at 540 nm using SpectraMax 190 (Molecular Devices, USA).
# [2] = tested on: NCI-N87 (HER2 positive); assay: Cytotoxicity of anti-HER2 ADCs, SRB assay; format: cell-based, human; conditions: Table 12, hybrid ADCs
# Procedure: as §1, §2
# [3] = tested on: SK-OV-3 (HER2 positive); assay: Cytotoxicity of anti-HER2 ADCs, SRB assay; format: cell-based, human; conditions: Table 12, hybrid ADCs
# Procedure: as §1, §2
# [4] = tested on: HCC-827 cells, which express an intermediate level of EGFR; assay: Cytotoxicity of Erbitux based ADCs, SRB; format: cell-based; conditions: 72 hours; read-out: IC50 against HCC-827 cells
# Procedure: (§3) A431 cells, which express high levels of EGFR, and MCF-7 cells, which express low levels of EGFR, were plated at about 1000 cells per well in a 96-well plate in 100 μL of media. HCC-827 cells, which express an intermediate level of EGFR were plated at about 5000 cells per well in a 96-well plate in 100 μL of media. […] The cells were incubated for 72 hours and then fixed for 1 hour at 4° C. after adding 100 μL of ice-cold 10% trichloroacetic acid to each well.
# [5] = tested on: MCF-7 cells, which express low levels of EGFR; assay: Cytotoxicity of Erbitux based ADCs, SRB; format: cell-based; conditions: 72 hours; read-out: IC50 against MCF-7 cells
# Procedure: as §3
# [6] = tested on: A431 cells, which express high levels of EGFR; assay: Cytotoxicity of Erbitux based ADCs, SRB; format: cell-based; conditions: 72 hours; read-out: IC50 against A431 cells
# Procedure: as §3
# [7] = tested on: SK-BR3 cells; assay: Plasma stability of ADCs: human plasma incubation, then SRB cytotoxicity test; format: cell-based; conditions: Table 18; human plasma 0 h; SK-BR3 cells 72 hr; read-out: Plasma stability of Herceptin based ADCs (nM), Plasma incubation time 0 h
smiles,measurement,setting,value
"CC[C@H](C)[C@@H]([C@@H](CC(=O)N1CCC[C@H]1[C@H](OC)[C@@H](C)C(=O)N[C@@H](Cc1ccccc1)C(=O)OC)OC)N(C)C(=O)[C@@H](NC(=O)[C@@H](NC)C(C)C)C(C)C [MMAF-OMe, monomethyl auristatin F methyl ester] (H-[NMeV]V[Dil][Dolaproine]F-OMe)",IC50,[1],0.6 nM
same,IC50,[2],0.49 nM
same,IC50,[3],0.78 nM
same,IC50,[4],1.99 nM
same,IC50,[5],1.81 nM
same,IC50,[6],1.11 nM
same,IC50,[7],0.48 nM
